Tests used:
Format in all cases: physicochemical
[1] = Hydrolysis (deprotection) rate of protected triazabutadienes; conditions: relative to ethyl carbamate 7, FIG. 8G
Procedure: The reaction is assumed to be second order with the addition of hydroxide to be the rate-determining step.
Without wishing to limit the present invention to any theory or mechanism, it is believed that this can be rationalized by a model whereby the carbonyl is stabilized by being more electron rich and thus less prone to nucleophilic attack.
The reaction is assumed to be second order with the addition of hydroxide to be the rate-determining step. […] Compound was in a concentration of 31 μM in 25 mM sodium borate buffer of pH 10 with scans every 60 seconds. […] Scans were obtained every 60 seconds.

[2] = Decomposition in D2O / buffers followed by NMR; conditions: for Compound consumed after 24 hours: D2O, in the dark
Procedure: For decomposition experiments, buffers were made to the appropriate pH in a 9:1 mix of H2O:D2O. These solutions were added to the compound being assayed such that the buffer capacity was at least 10 fold the concentration of the compound. Some experiments used 5 mg compound in 0.5 mL of buffer (e.g., pH 5 acetate buffer at 25 degrees C.). These were immediately inserted into an NMR instrument and scans were taken at even time intervals to calculate the half-life of the compound based on integration.
(§1) To render the triazabutadiene water-soluble, methyl imidazole was alkylated with propane sultone to provide the Zwitterionic NHC precursor Compound 5a (see FIG. 6E). […] Compound 6a was highly colored, so its pH dependence was studied using UV/vis. The reactions were not only pH-, but also scan-frequency dependent. Upon finding this, the stability of Compound 6a was studied in D2O in the dark using NMR. Even in the dark it was unstable, but not in the diazonium-forming way. Both Compound 6b and a more hindered mesityl (Mes) substituted Compound 6c (see FIG. 6E) were synthesized to stabilize what was initially considered to be a rearrangement pathway that could be blocked by steric repulsion. […] Dissolution in 0.1 N NaOH rendered all compounds stable (e.g., no detectable degradation after 24 hours in the dark).
As mentioned above, Compound 6c was reasonably stable in pure D2O. Upon adjusting the pH to 5 with HCl, a rapid initial consumption of Compound 6c to Compound 7 (see FIG. 6E) and a benzenediazonium salt was noted. After this initial burst of reactivity, a slowing and apparent arresting of the reaction was noted. At this pH the hydronium was the limiting reagent. All future reactions were run in buffers with a buffer capacity sufficient to maintain a large excess of hydronium ions. The experiments were performed in 90:10 H2O:D2O buffered solutions to minimize considerations of pH vs. pD. The decomposition to diazonium salts and Compound 7 was measured as a function of pH in phosphate/citrate buffers from pH 4-7 and in a phosphate buffer from pH 6-8. All runs provided linear correlations of concentration and time, indicating a pseudo-zero order reaction (first order with respect to hydronium ion with a large excess of hydronium ions). While the peaks for Compound 7 remained constant, the peaks associated with Compound 6c drifted downfield as the reaction progressed. This drifting was highly reproducible across samples and buffers, but the underlying cause is not understood at this time. A sigmoidal correlation between rate and buffer pH centered at pH 6 was obtained. When resorcinol was not added to consume the diazonium species, 4-phenylazophenol (Compound 8) was observed (see FIG. 6F). Compound 8 came from the decomposition of one diazonium ion to phenol followed by reaction with a second diazonium ion. The instability of Compound 6c in a pH 7 phosphate buffer was surprising given the stability in D2O. Compound 6c was tested in a non-buffered 90:10 H2O:D2O solution and observed only […] after 6 hours.
(§2) To further examine the reactivity of this class of compounds, variants Compound 6d and Compound 6e were synthesized (see FIG. 6G). It was hypothesized that the p-methoxy and p-nitro analogs (Compound 6d and Compound 6e, respectively) would display different reactivity profiles. […] After collecting the precipitate and dissolving it in deuterated methanol, no change was observed from a sample of Compound 6e that had never been exposed to a buffered solution. […] It is possible that: 1) that the sodium salt of Compound 6e is much less soluble than the potassium salt; or 2) with different solvating ions present the sulfonate interacts with the electron-poor N2 nitrogen atom of the triazabutadiene to break conjugation and form an insoluble complex (this is backed by a reversible color change of the starting rust-red solid, to the light yellow precipitate). […]

Solubility observations = assay: Solubility observations
Procedure: It is possible that Compound A may be useful as a photo-catalytic base in the context of organic reactions. […] As noted previously, Compound A is quite stable to an excess of acetic acid in DMSO, showing only 12% degradation over 14 hours at room temperature. […] To confirm that this was due to the acid, a solution of Compound A (in pure DMSO) was irradiated. After four hours of constant irradiation in acid-free DMSO, an E:Z ratio of nearly 50:50 was observed.
(§3) As another non-limiting example, an azide (e.g., NHS-azide) to N-heterocyclic carbene (NHC) route may be used to synthesize triazabutadiene molecules (e.g., see FIG. 6C). For example, as shown in Compound 4 of FIG. 6D, a triazabutadiene molecule was synthesized from dimethyl imidazole derived NHC and phenyl azide. […] This change was confirmed to coincide with diazonium formation by trapping the reactive species with resorcinol to provide known diazo dye Sudan Orange G. When the triazabutadiene molecule (Compound 4) was treated with the much less acidic acetic acid, the same product was obtained.
as §1, §2

[3] = Acid-triggered diazonium formation; conditions: methanolic HCl or exposure to acid; trapped with resorcinol or Tyr 6
Description: as §3
To further examine the reactivity of this class of compounds, variants Compound 6d and Compound 6e were synthesized (see FIG. 6G). It was hypothesized that the p-methoxy and p-nitro analogs (Compound 6d and Compound 6e, respectively) would display different reactivity profiles. […] After collecting the precipitate and dissolving it in deuterated methanol, no change was observed from a sample of Compound 6e that had never been exposed to a buffered solution. […]

[4] = Photo-induced degradation of triazabutadienes under hand-held UV lamp, followed by NMR; conditions: buffered borate solution, UV lamp, NMR integration
Procedure: (i) The reaction was monitored by comparing starting materials (A, C, D, and E) with product (B); (ii) Peak absorption and extinction coefficients for all of the compounds were excitable by the UV source used; (iii) Time-dependent conversion of compounds was measured by NMR integration.
Referring to FIG. 5A, in some embodiments, triazabutadiene molecules of the present invention may readily photoisomerize to a more reactive Z-form. As an example, an aqueous solution of Compound A was irradiated with a simple hand-held UV lamp (“365 nm,” measured at 350 nm). Consumption of Compound A was observed after only a few hours. […] Without wishing to limit the present invention to any theory or mechanism, it was hypothesized that if a two-electron process were happening, then Compound A-Z would be more basic than Compound A-E. A 1.0 N NaOH solution of Compound A was treated with light. […] Benzene diazonium ions also absorb UV light to expel nitrogen and generate a benzene radical. In order to resolve if the initial cleavage undergoes a radical homolytic mechanism versus a two-electron heterolytic mechanism, a trapping experiment using resorcinol was conducted. (Resorcinol was chosen because it can serve a dual role as a radical scavenger and a trap benzene diazonium species that could be formed.) An excess of resorcinol was added to a pH 9 borate-buffered solution of Compound A and the mixture was irradiated with light. The known azobenzene, Sudan Orange G, was formed in a 65% yield (versus 4% for the non-irradiated reaction). Derivatives of Compound A were made to examine the effects of electronic perturbations on the light-induced degradation. […] A buffered borate solution was chosen due to its alkaline nature and lack of complicating signals in the NMR experiment. Compounds C-E all have absorption spectra that are well within the range of the UV lamp (see FIG. 5A(ii)).

[5] = In situ real-time pH measurement upon UV irradiation; conditions: compared with Compound A
Procedure: In an effort to examine the rate order for the pH-increasing reaction more carefully, in situ, real-time pH measurements were acquired. Compound A was dissolved in water and the pH of the solution was adjusted to 9 such that it would not form Compound B in the absence of light. […] This spike was not at all consistent with the model of the pH increase being solely linked to the concentration of Compound B being generated.
A sample was irradiated and then the light was turned off once the pH of the solution started to increase noticeably. […] The experiment was repeated with increasing times of irradiation, and a saw-tooth pattern was obtained. The process was not completely reversible due to some degradation to Compound B. Indeed, triazabutadiene Compound A can serve a dual role of being a photo-masked base (see FIG. 4B(i)), and a base whose intrinsic functional group properties are altered photochemically (FIG. 4B(iii)).
Referring to FIG. 5A(iii), Compound C and Compound D were examined in an effort to find a base that was reversibly basic but also more resistant to degradation.

For CCOC(=O)N(N=Nc1n(-c2c(C)cc(C)cc2C)cc[n+]1-c1c(C)cc(C)cc1C)c1ccc([N+](=O)[O-])cc1.[Cl-] [Compound 11], the “Effect of substituent on rate of deprotection / hydrolysis” value (shortened to “Effect … of deprotection / hydrolysis”) [1] was “slowed hydrolysis”.
For CC(C)(C)n1ccn(CCCS(=O)(=O)O)c1=NN=Nc1ccccc1 [Compound 6b], the “Compound consumed after 24 hours” value ([2]; NMR) was 50%.
With Cn1ccn(CCCS(=O)(=O)O)c1=NN=Nc1ccccc1 [Compound 6a] the Water solubility (Solubility observations) was “highly water soluble” and the “Compound consumed after 24 hours” value ([2]; NMR) was 50%.
In the case of CCOC(=O)N(N=Nc1n(-c2c(C)cc(C)cc2C)cc[n+]1-c1c(C)cc(C)cc1C)c1ccc(C)cc1.[Cl-] [Compound 8], the “Effect … of deprotection / hydrolysis” value [1] is reported as “slowed the rate of deprotection moderately”.
For Cc1cc(C)c(-n2ccn(CCCS(=O)(=O)[O-])c2=NN=Nc2ccc([N+](=O)[O-])cc2)c(C)c1.[K+] [Compound 6e], the “Behaviour in buffered solution (solubility)” value (Solubility observations; pH 5, 6 and 7 phosphate/citrate buffer) was “rapidly precipitated out of solution”, the “Response to acid (diazonium formation)” value [3] was “immediate color change” and the “Stability after 24 hours” value ([2]; pure D2O, dark, room temperature, NMR) was “stable to within the detection limit of NMR”.
In the case of CCOC(=O)N(N=Nc1n(-c2c(C)cc(C)cc2C)cc[n+]1-c1c(C)cc(C)cc1C)c1ccc(OC)cc1.[Cl-] [Compound 9], the “Effect … of deprotection / hydrolysis” value [1] is reported as “rate could not be determined”.
For COc1ccc(N=NN=c2n(CCCS(=O)(=O)[O-])ccn2-c2c(C)cc(C)cc2C)cc1.[K+] [Compound 6d], the “Compound consumed after 24 hours” value ([2]; NMR) was 26%.
In the case of CCOC(=O)N(N=Nc1n(-c2c(C)cc(C)cc2C)cc[n+]1-c1c(C)cc(C)cc1C)c1ccc(C(F)(F)F)cc1.[Cl-] [Compound 10], the “Effect … of deprotection / hydrolysis” value [1] is reported as “slowed hydrolysis”.
In the case of Cc1cc(C)c(-n2ccn(CCCS(=O)(=O)[O-])c2=NN=Nc2ccccc2)c(C)c1.[K+] [Compound 6c, Potassium 3-(3-mesityl-2-(phenyltriaz-2-en-1-ylidene)-2,3-dihydro-1H-imidazol-1-yl) propane-1-sulfonate], the “Compound consumed after 24 hours” value ([2]; NMR) is reported as “less than 10%”, the “Compound consumed after 6 hours” value ([2]; non-buffered 90:10 H2O:D2O) is reported as greater than 7% and the “pH at centre of sigmoidal correlation between decomposition rate and buffer pH” value ([2]; phosphate/citrate pH 4-7 and phosphate pH 6-8 buffers, 90:10 H2O:D2O) is reported as 6.
With Cn1ccn(C)c1=NN=Nc1ccccc1 [Compound 4] the Water solubility (Solubility observations) was “not water-soluble” and the “Response to acid (diazonium formation)” value [3] was “rapid color change”.
With Cc1cc(C)c(-n2ccn(CCCS(=O)(=O)[O-])c2=NN=Nc2ccc([N+](=O)[O-])cc2)c(C)c1.[K+] [Compound E] the “Relative rate of light-induced degradation” value (shortened to “Relative rate”) [4] was “recalcitrant to degradation”.
With Cc1cc(C)c(-n2ccn(CCCS(=O)(=O)[O-])c2=NN=Nc2ccc(C#N)cc2)c(C)c1.[K+] [Compound D] the “Relative rate” value [4] was “slower than Compound A” and the “pH change on irradiation” value [5] was “slow subtle change to the pH”.
With Cc1cc(C)c(-n2cc[n+](-c3c(C)cc(C)cc3C)c2N=NN(C(=O)OCC(C)(C)C)c2ccccc2)c(C)c1.[Cl-] [Compound 12] the “Effect … of deprotection / hydrolysis” value [1] was “small change in rate”.
In the case of Cc1cc(C)c(-n2cc[n+](-c3c(C)cc(C)cc3C)c2N=NN(C(=O)OC(C)C)c2ccccc2)c(C)c1.[Cl-] [Compound 13], the “Effect … of deprotection / hydrolysis” value [1] is reported as “small change in rate”.
With Cc1cc(C)c(-n2ccn(CCCS(=O)(=O)[O-])c2=NN=Nc2cccc([N+](=O)[O-])c2)c(C)c1.[K+] [Compound C] the “Relative rate” value [4] was “slower than Compound A” and the “pH change on irradiation” value [5] was “slow subtle change to the pH”.

Source: patent publication US10472330B2, “Substituted triazenes protected from degradation by carboxylation of N1” (ARIZONA BOARD OF REGENTS ON BEHALF OF THE UNIVERSITY OF …, priority 2015, dated 2019)
